The text below walks through data of patent publication US12403168B1, “Method for producing a plant-based extract composition having the effect of enhancing nutrition and immunity” (priority 2024, dated 2025).

The structures appear in SMILES notation.

Format in all cases: in vivo
For assay [1], the system named is male (Swiss albino) mice. In words: Leukocyte count and percentage of leukocyte types. Conditions: CY (+) mice, 5th day after CY injection 150 mg/kg i.p.; composition 200 100 mg/kg/day, levamisole 25 mg/kg oral. Here is the method:
(§1) Test subjects: the experiment was performed on healthy adult male (Swiss albino) mice, 5-6 weeks old, weighing 25±2 grams. They were nurtured to stabilize for 1 week before conducting the experiment at room temperature (27° C.-28° C.). They were fed with synthetic pellets for mice, and the drinking water was tap water.
(§2) Test sample: the composition 200 which is obtained from the example 1, and the control sample used distilled water.
(§3) Male (Swiss albino) mice were immunodeficient by intraperitoneally administering a single dose of cyclophosphamide (150 mg/kg body weight) on the first day and then orally administering the test samples continuously for 5 days.
(§4) The experiment for immune-enhancing of the composition 200 by arrangement total of 60 male mice was used for experimental (23-25 g) divided into six treatments listed in Table 5 below.
(§5) [formula] • wherein Pcq is the weight of the organ; Pct is the body weight of the mouse at the time of survey. 3) Leukocyte Count and Percentage of Leukocyte Types; • Collected tail vein blood from mice on the 5th day after CY injection. […] On the 14th day, sensitization was induced by tail vein injection with ovalbumin at a dose of 0.5 mg/kg mouse body weight. […] Measure the volume of the mouse paw at 4 hours (V1) and 24 hours (V2) after the second ovalbumin injection. The left paw that was not injected was used as the reference (Vo). Calculate the percentage of mouse paw edema using the formula: […]

In assay [2] the test system is male (Swiss albino) mice. Kind of assay: Cellular immune response (delayed hypersensitivity), ovalbumin mouse paw edema. The note with it: CY (+) mice, cyclophosphamide 150 mg/kg i.p., composition 200 100 mg/kg/day, levamisole 25 mg/kg oral. Here is the method:
as §1, §2, §3, §4
[formula] • wherein Pcq is the weight of the organ; Pct is the body weight of the mouse at the time of survey. 3) Leukocyte Count and Percentage of Leukocyte Types; • Collected tail vein blood from mice on the 5th day after CY injection. […] On the 14th day, sensitization was induced by tail vein injection with ovalbumin at a dose of 0.5 mg/kg mouse body weight. […] Measure the volume of the mouse paw at 4 hours (V1) and 24 hours (V2) after the second ovalbumin injection. The left paw that was not injected was used as the reference (Vo). […]

Assay [3] has as its system male (Swiss albino) mice. Kind of assay: Relative weight of organs: liver, spleen, and thymus. The note with it: CY (+) mice, 10th day after cyclophosphamide 150 mg/kg i.p.; composition 200 100 mg/kg/day, levamisole 25 mg/kg oral. The method, then:
as §1, §2, §3, §4
The relative weights of the organs were calculated using the following formula:
as §5

In the case of `c1ccc([C@H]2CN3CCSC3=N2)cc1` [levamisole], in assay [1], the “% Lymphocyte” value turned out to be 59.56 ± 4.42%, the “% Monocyte” value stood at 14.06 ± 3.64% and the “% Neutrophil” value was found to be 10.81 ± 1.18%. Besides, the “% V4h, percentage of the mouse paw edema after 4 hours” value in assay [2] (4 hours after second ovalbumin injection) worked out at 81.27 ± 7.52%. The “% V24 h, percentage of the mouse paw edema after 24 hours” value in assay [2] (24 hours after second ovalbumin injection) came to 38.28 ± 7.12%. Moreover, in assay [3], the “relative weight of liver” value was found to be 5.074 ± 0.189 g %, the “relative weight of spleen” value came to 0.343 ± 0.031 g % and the “relative weight of thymus” value is recorded as 0.073 ± 0.013 g %.
